The record followed here is patent US20190389843A1, “PYRROLE mTORC INHIBITORS AND USES THEREOF” (Navitor Pharmaceuticals, Inc., priority 2016, published 2019).

As usually defined, the IC50 is the point on the concentration scale where inhibition reaches its midpoint. The low end stands for greater potency, the high end for weaker potency.

Assay [1] concerns pS6K1 in MCF7 (measure of mTORC1 activity). Briefly: AlphaLISA Ultra pS6K1 assay. The class given is cell-based. The settings on record: Homo sapiens, MCF7, 2 h, MCF-7 cells, 2 hours compound incubation. An outline of the steps:
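MCF7 cells, refreshed medium 2 h, treated with compound 2 h at 0.5% DMSO final, then lysed. Phospho-S6K1 in lysates detected by AlphaLISA Ultra (acceptor beads 2 h, donor beads 2 h), read as Alpha signal on a multimode reader.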
For orientation: Bead proximity is the source of the signal in Alpha formats.

Assay [2] deals with pAKT in MCF7 (measure of mTORC2 activity). In words: AlphaLISA Ultra pAKT assay. The class given is cell-based. Particulars: Homo sapiens, MCF7, 2 h, MCF-7 cells, 2 hours compound incubation. An outline of the steps: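 MCF7 cells, 16,000-20,000 per well, treated with compound for 2 h at 0.5% final DMSO, then lysed. Phospho-AKT, as a readout of mTORC2 activity, measured by AlphaLISA Ultra with acceptor beads and then donor beads, 2 h each.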

With `COCCn1cc(CN2CCN(c3ccccc3)CC2)cc1C(=O)N1CCN(c2ccccc2C#N)CC1` [Example I-149], the concentration for half-maximal inhibition (IC50) was 3000 to 10000 nM in assay [1] and above 10000 nM in assay [2].
For `CC(c1cc(C(=O)N2CCN(c3ccccc3)CC2)n(C)c1)N1CCN(c2ccccc2Cl)CC1` (centres unmarked) [Example I-106, 1-(2-Chlorophenyl)-4-{1-[1-methyl-5-(4-phenylpiperazine-1-carbonyl)-1H-pyrrol-3-yl]ethyl}piperazine], the 50% inhibitory concentration (IC50) in assay [1] was 1000 to 3000 nM; in assay [2] it was above 3000 nM.
Consider `Cc1c(CN2CCN(c3ccccc3Cl)CC2)cc(C(=O)N2CCN(c3ccccc3C#N)C[C@@H]2C)n1C` [Example I-100], for which the results for the IC50 in assay [1] and in assay [2] were 10 to 1000 nM and above 10000 nM, respectively.
As to `Cc1c(CN2CCN(c3ccccc3Cl)CC2)cc(C(=O)N2CCN(c3ncccn3)C[C@@H]2C)n1C` [Example I-74, (S)-(4-((4-(2-chlorophenyl)piperazin-1-yl)methyl)-1,5-dimethyl-1H-pyrrol-2-yl)(2-methyl-4-(pyrimidin-2-yl)piperazin-1-yl)methanone], the half-maximal inhibitory concentration (IC50) is 1000 to 3000 nM in assay [1] and above 10000 nM in assay [2].
With `Cc1c(CN2CCN(c3ccccc3Cl)CC2)cc(C(=O)N2CCN(c3cccc(F)c3)C[C@@H]2C)n1C` [Example I-75, (S)-(4-((4-(2-chlorophenyl)piperazin-1-yl)methyl)-1,5-dimethyl-1H-pyrrol-2-yl)(4-(3-fluorophenyl)-2-methylpiperazin-1-yl)methanone 2,2,2-trifluoroacetate], the IC50 in assay [1] is 1000 to 3000 nM; in assay [2] it was above 5000 nM.
On to `Cn1cc(CN2CCN(c3ccc(F)cc3Cl)CC2)cc1C(=O)N1CCN(c2ccc(F)cc2)CC1` [Example I-127], for which the results for the 50% inhibitory concentration (IC50) in assay [1] and in assay [2] were 1000 to 3000 nM and above 10000 nM, respectively.
The matching figures for `Cc1c(CN2CCN(c3ccccc3Cl)CC2)cc(C(=O)N2CCN(c3cnccn3)C[C@@H]2C)n1C` [Example I-51, (S)-(4-((4-(2-chlorophenyl)piperazin-1-yl)methyl)-1,5-dimethyl-1H-pyrrol-2-yl)(2-methyl-4-(pyrazin-2-yl)piperazin-1-yl)methanone]: 10 to 1000 nM and above 10000 nM.
For `Cn1cc(CN2CCN(c3ccccc3C#N)CC2)cc1C(=O)N1CCN(c2nnccc2C#N)CC1` [Example I-17], the results for the half-maximal inhibitory concentration (IC50) in assay [1] and in assay [2] were 3000 to 10000 nM and above 10000 nM, respectively.
Consider `Cc1c(CN2CCN(c3ccccc3Cl)CC2)cc(C(=O)N2CCN(c3cccc(C#N)c3)CC2)n1C` [Example I-110, 3-(4-(4-((4-(2-chlorophenyl)piperazin-1-yl)methyl)-1,5-dimethyl-1H-pyrrole-2-carbonyl)piperazin-1-yl)benzonitrile], for which the results for the 50% inhibitory concentration (IC50) in assay [1] and in assay [2] were 10 to 1000 nM and above 1000 nM, respectively.
The matching figures for `Cn1cc(CN2CCN(c3ccccc3Cl)CC2)cc1C(=O)N1CCN(c2ccccn2)CC1` [Example I-122]: 10 to 1000 nM and above 1000 nM.
For `Cc1nc(N2CCN(C(=O)c3cc(CN4CCN(c5ccccc5Cl)CC4)c(C#N)n3C)CC2)ccc1F` [Example I-37], the values for the IC50 in assay [1] and in assay [2] were 10 to 1000 nM and above 3000 nM, respectively.
For the compound `Cn1cc(CN2CCN(c3ccccc3Cl)CC2)cc1C(=O)N1CCN(c2cccc(C#N)c2)CC1` [Example I-138, 3-(4-(4-((4-(2-chlorophenyl)piperazin-1-yl)methyl)-1-methyl-1H-pyrrole-2-carbonyl)piperazin-1-yl)benzonitrile], the 50% inhibitory concentration (IC50) in assay [1] was 1000 to 3000 nM; in assay [2], above 3000 nM.
Consider `Cc1c(CN2CCN(c3ccccc3N=[N+]=[N-])CC2)cc(C(=O)N2CCN(c3ccccc3)CC2)n1C` [Example I-97, (4-((4-(2-azidophenyl)piperazin-1-yl)methyl)-1,5-dimethyl-1H-pyrrol-2-yl)(4-phenylpiperazin-1-yl)methanone], for which the IC50 in assay [1] was 1000 to 3000 nM; in assay [2], above 5000 nM.
Regarding `Cc1c(CN2CCN(c3ccccc3C#N)CC2)cc(C(=O)N2CCN(c3cc(F)c(F)cc3C#N)CC2)n1C` [Example I-4], the figures for the 50% inhibitory concentration (IC50) in assay [1] and in assay [2] were 10 to 1000 nM and above 1000 nM, respectively.
For the compound `Cc1c(CN2CCN(c3ccccc3Cl)CC2)cc(C(=O)N2CCN(c3cccc4cc[nH]c34)C[C@@H]2C)n1C` [Example I-31, (S)-(4-(1H-indol-7-yl)-2-methylpiperazin-1-yl)(4-((4-(2-chlorophenyl)piperazin-1-yl)methyl)-1,5-dimethyl-1H-pyrrol-2-yl)methanone], the half-maximal inhibitory concentration (IC50) in assay [1] is 1000 to 3000 nM; in assay [2] it was above 10000 nM.
With `Cn1cc(CNC2CCN(c3ccccc3Cl)CC2)cc1C(=O)N1CCN(c2ccc(F)cc2)CC1` [Example I-129], the IC50 was 1000 to 3000 nM in assay [1] and above 10000 nM in assay [2].
Take `Cc1c(CN2CCN(c3ncccc3Cl)CC2)cc(C(=O)N2CCN(c3ccc(F)cc3)CC2)n1C` [Example I-80, (4-((4-(3-Chloropyridin-2-yl)piperazin-1-yl)methyl)-1,5-dimethyl-1H-pyrrol-2-yl)(4-(4-fluorophenyl)piperazin-1-yl)methanone]: the concentration for half-maximal inhibition (IC50) is 10 to 1000 nM in assay [1] and above 3000 nM in assay [2].
Regarding `Cc1c(CN2CCN(c3ccccc3N=[N+]=[N-])CC2)cc(C(=O)N2CCN(c3ccccc3)C[C@@H]2C)n1C` [Example I-83, (S)-(4-((4-(2-azidophenyl)piperazin-1-yl)methyl)-1,5-dimethyl-1H-pyrrol-2-yl)(2-methyl-4-phenylpiperazin-1-yl)methanone], the IC50 in assay [1] was 1000 to 3000 nM; in assay [2] it was above 10000 nM.
In the same order, the values of `Cc1cccc(N2CCN(C(=O)c3cc(CN4CCN(c5ccccc5C#N)CC4)c(C)n3C)CC2)n1` [Example I-64] are 10 to 1000 nM and above 3000 nM.
Consider `COCCn1cc(CN2CCN(c3ccccc3C(F)(F)F)CC2)cc1C(=O)N1CCN(c2ccccc2)CC1` [Example I-139], for which the IC50 in assay [1] was 3000 to 10000 nM; in assay [2], above 10000 nM.
Consider `Cc1c(CN2CCN(c3ccccc3C#N)CC2)cc(C(=O)N2CCN(c3ccccc3C#N)CC2)n1C` [Example I-23], for which the IC50 in assay [1] was 10 to 1000 nM; in assay [2], above 10000 nM.
As to `Cc1c(CN2CCN(c3ccccc3Cl)CC2)cc(C(=O)N2CCN(c3cc(F)ccc3C#N)CC2)n1C` [Example I-85, 2-(4-(4-((4-(2-Chlorophenyl)piperazin-1-yl)methyl)-1,5-dimethyl-1H-pyrrole-2-carbonyl)piperazin-1-yl)-4-fluorobenzonitrile], the half-inhibitory concentration (IC50) was 10 to 1000 nM in assay [1] and above 3000 nM in assay [2].
With `Cc1c(CN2CCN(c3ccccc3Cl)CC2)cc(C(=O)N2CCN(c3ccc(F)cc3)C[C@@H]2C)n1C` [Example I-95, (S)-(4-((4-(2-chlorophenyl)piperazin-1-yl)methyl)-1,5-dimethyl-1H-pyrrol-2-yl)(4-(4-fluorophenyl)-2-methylpiperazin-1-yl)methanone], the IC50 in assay [1] is 10 to 1000 nM; in assay [2] it was above 3000 nM.
In the same order, the values of `Cc1c(CN2CCN(c3ccccc3C#N)CC2)cc(C(=O)N2CCN(c3ccccn3)C[C@@H]2C)n1C` [Example I-42] are 10 to 1000 nM and above 3000 nM.
Consider `Cc1ccnc(N2CCN(C(=O)c3cc(CN4CCN(c5ccccc5C#N)CC4)c(C)n3C)CC2)c1` [Example I-62], for which the IC50 in assay [1] was 10 to 1000 nM; in assay [2] it was above 3000 nM.
As for `Cn1cc(CN2CCN(c3ccccc3Cl)CC2)cc1C(=O)N1CCN(c2ccc(F)cc2)CC1` [Example I-135], the concentration for half-maximal inhibition (IC50) is 1000 to 3000 nM in assay [1] and above 3000 nM in assay [2].
Turning to `Cc1cccc(N2CCN(C(=O)c3cc(CN4CCN(c5ccccc5Cl)CC4)c(C#N)n3C)CC2)n1` [Example I-38], the IC50 in assay [1] was 10 to 1000 nM; in assay [2], above 3000 nM.
On to `Cc1c(CN2CCN(c3ccccc3C#N)CC2)cc(C(=O)N2CCCN(c3cccc(C#N)c3)CC2)n1C` [Example I-45, 2-(4-((5-(4-(3-cyanophenyl)-1,4-diazepane-1-carbonyl)-1,2-dimethyl-1H-pyrrol-3-yl)methyl)piperazin-1-yl)benzonitrile], for which the IC50 in assay [1] is 1000 to 3000 nM; in assay [2], above 10000 nM.
The matching figures for `Cn1cc(CN2CCN(c3ccccc3C#N)CC2)cc1C(=O)N1CCN(c2ccccc2)CC1` [Example I-124, 2-(4-((1-methyl-5-(4-phenylpiperazine-1-carbonyl)-1H-pyrrol-3-yl)methyl)piperazin-1-yl)benzonitrile]: 10 to 1000 nM and above 3000 nM.
Take `Cn1c(C(=O)N2CCN(c3ccccc3)CC2)cc(CN2CCN(c3ccccc3C#N)CC2)c1C#N` [Example I-39]: the IC50 in assay [1] was 10 to 1000 nM; in assay [2], above 10000 nM.
Consider `Cc1c(CN2CCN(c3ccccc3Cl)CC2)cc(C(=O)N2CCN(c3ccc(F)c(F)c3)CC2)n1C` [Example I-109, (4-((4-(2-chlorophenyl)piperazin-1-yl)methyl)-1,5-dimethyl-1H-pyrrol-2-yl)(4-(3,4-difluorophenyl)piperazin-1-yl)methanone], for which the results for the concentration for half-maximal inhibition (IC50) in assay [1] and in assay [2] were 10 to 1000 nM and above 1000 nM, respectively.
Take `Cc1c(CN2CCN(c3ccccc3Cl)CC2)cc(C(=O)N2CCN(c3ccccc3)CC2)n1C` [Example I-133, (4-((4-(2-Chlorophenyl)piperazin-1-yl)methyl)-1,5-dimethyl-1H-pyrrol-2-yl)(4-phenylpiperazin-1-yl)methanone]: the IC50 was 10 to 1000 nM in assay [1] and above 1000 nM in assay [2].
As to `C[C@H]1CN(c2ccc(F)c(F)c2)CCN1C(=O)c1cc(CN2CCN(c3ccccc3Cl)CC2)cn1C` [Example I-117, (S)-(4-((4-(2-chlorophenyl)piperazin-1-yl)methyl)-1-methyl-1H-pyrrol-2-yl)(4-(3,4-difluorophenyl)-2-methylpiperazin-1-yl)methanone], the half-maximal inhibitory concentration (IC50) is 10 to 1000 nM in assay [1] and above 3000 nM in assay [2].
The matching figures for `Cc1c(CN2CCN(c3ccccc3C#N)CC2)cc(C(=O)N2CCN(c3ccc(C#N)cc3)CC2)n1C` [Example I-53]: 1000 to 3000 nM and above 10000 nM.
